In US11147799B2, “Topical pharmaceutical composition containing phenytoin and a (co-) analgesic for the treatment of chronic pain” (Topical Innovations B.V., priority 2016, dated 2021):
Entries after “also recorded” stand apart in the source; their conditions may differ.

Legend:
neuropathic pain [1] = assay: Earlier oral medication of the case patients (case histories); details: case history of the individual patient
[2] = after oral administration; corresponding tissue; cited from earlier work
neuropathic pain [3] = details: 21% for placebo; cited from earlier work

| SMILES | pain relieving effect of earlier oral medication (words) (neuropathic pain [1]) | side effects of earlier oral medication (neuropathic pain [1]) | other results |
| --- | --- | --- | --- |
| CN(C)CCC=C1c2ccccc2CCc2ccccc21 [Amitriptyline] | did not have any pain relieving effect |  |  |
| O=C(O)Cc1ccccc1Nc1c(Cl)cccc1Cl [diclofenac] |  |  | Cmax of diclofenac in muscles [2]: 1160 ng/mL |
| NCC1(CC(=O)O)CCCCC1 [gabapentin] |  | too much side effects | patients who achieved 50% or more pain relief (neuropathic pain [3]): about 35% |
| CC(C)C[C@H](CN)CC(=O)O [pregabalin] | without sufficient pain reduction; also recorded: had a pain reducing effect | anxiety and depression; also recorded: too much side effects | pain relieving effect of earlier oral medication (words) (neuropathic pain [1]; listed as Pregabalin): did not have any effect |
| COc1ccc(C(CN(C)C)C2(O)CCCCC2)cc1 (centres unmarked) [venlafaxine] |  | induced nausea |  |
